Assay results reported in patent EP1978023A1, “Pyridazines as fungicides” (Bayer CropScience Aktiengesellschaft, priority 2007, dated 2008).

Assays:
[1] = HPLC reversed-phase C 18; 40°C; 0.1% aqueous formic acid and acetonitrile, linear gradient 10% to 95% acetonitrile
From the text: (§1) Die Kalibrierung wurde jeweils mit unverzweigten Alkan-2-onen (3 bis 16 Kohlenstoff Atome) mit bekannten logP Werten durchgeführt (Bestimmung von den logP Werten über die Retentionszeiten durch lineare Interpolation zwischen zwei bestimmten Alkanonen).

From the text for physchem: as §1

Work on `CC1(O)OC(=O)C(c2cccs2)=C1c1ccc(Cl)s1` (stereo not shown) [(3), 4-(5-Chlor-2-thienyl)-3-(2-thienyl)-5-hydroxy-5-methylfuran-2(5H)-on] yielded a chromatographic logP (physchem) of 2.9.

Compound `Cc1n[nH]c(=O)c(-c2cccs2)c1-c1ccc(Cl)s1` [(4), 5-(5-Chlor-2-thienyl)-4-(2-thienyl)-6-methylpyridazin-3(2H)-on] has a chromatographic logP (physchem) of 2.71.

With `Cc1nnc(Cl)c(-c2cccs2)c1-c1ccc(Cl)s1` [Beispiel 11, 3-Chlor-5-(5-chlor-2-thienyl)-4-(2-thienyl)-6-methylpyridazin] the chromatographic logP (physchem) was 3.56 and the log p [1] was 3,56.
